Test results from ChEMBL document CHEMBL4610067, “Molecular Networking Reveals Serpentinine-Related Bisindole Alkaloids from Picralima nitida, a Previously Well-Investigated Species” (J Nat Prod, 2020).

How the values were obtained:
[1] = tested on: MRC5; experiment: Growth inhibition of human MRC5 cells after 72 hrs by resazurin dye based spectrophotometric method assay; format: cell-based; conditions: MRC5, 72 h
[2] = tested on: Plasmodium falciparum; experiment: Antimalarial activity against chloroquine-resistant Plasmodium falciparum FcB1/Columbia infected in human erythrocytes assessed as reduction in [3H]-hypoxanthine incorporation pretreated for 24 hrs followed by [3H]-hypoxanthine addition measured after 24 hrs by liquid scintillation counting method; format: functional, organism-based

In the case of `C/C=C1/CN2CCc3c([nH]c4ccccc34)[C@@H]2C[C@@H]1[C@H](Cc1c[n+]2c(c3[nH]c4ccccc4c13)C[C@H](CCO)[C@@H](CC)C2)C(=O)OC`, the IC50 [1] is reported as over 50 µM and the IC50 [2] is reported as 8.7 µM.
With `C/C=C1/C[n+]2ccc3c([nH]c4ccccc43)c2C[C@@H]1CCO` the IC50 [1] was over 50 µM and the IC50 [2] was 19.5 µM.
`COC(=O)CCc1c[n+]2c(c3[nH]c4ccccc4c13)C[C@@H]1C(C(=O)OC)=CO[C@@H](C)[C@@H]1C2` showed an IC50 [2] of 3 µM.
With `C/C=C1/C[n+]2cc(C[C@H](C(=O)OC)[C@H]3C[C@H]4c5[nH]c6ccccc6c5CCN4C/C3=C/C)c3c([nH]c4ccccc43)c2C[C@@H]1CCO` the IC50 [1] was over 50 µM and the IC50 [2] was 9.5 µM.
Work on `C/C=C1/CN2CCc3c([nH]c4ccc(O)cc34)[C@@H]2C[C@@H]1CCO` yielded an IC50 [1] of over 50 µM and an IC50 [2] of 99 µM.
`C/C=C1/CN2CCc3c([nH]c4ccccc34)[C@@H]2C[C@@H]1[C@H](Cc1c[n+]2c(c3[nH]c4ccccc4c13)C[C@@H]1C(C(=O)OC)=CO[C@@H](C)[C@@H]1C2)C(=O)O` showed an IC50 [1] of over 50 µM and an IC50 [2] of 5.2 µM.
Work on `C/C=C1/CN2CCc3c([nH]c4ccccc34)[C@@H]2C[C@@H]1[C@H](Cc1c[n+]2c(c3[nH]c4ccccc4c13)C[C@@H]1C(C(=O)OC)=CO[C@@H](C)[C@@H]1C2)C(=O)OC` yielded an IC50 [1] of over 50 µM and an IC50 [2] of 2.6 µM.
